Measurements taken from patent US8492589B2, “Alkynyl phenyl derivative compounds for treating ophthalmic diseases and disorders” (Acucela Inc., priority 2007, dated 2013).
Like-named read-outs stand apart in the source and are kept apart here.

Target: T1, isomerase (Mus musculus, UniProt Q91ZQ5)
T1 construct: The recovery of 11-cis-retinal after bleaching can be used to estimate the activity of isomerase in vivo; from tissue; host or cells: eyes of living CD-1 and Balb/c male mice
T1 sequence (Q91ZQ5 1-533): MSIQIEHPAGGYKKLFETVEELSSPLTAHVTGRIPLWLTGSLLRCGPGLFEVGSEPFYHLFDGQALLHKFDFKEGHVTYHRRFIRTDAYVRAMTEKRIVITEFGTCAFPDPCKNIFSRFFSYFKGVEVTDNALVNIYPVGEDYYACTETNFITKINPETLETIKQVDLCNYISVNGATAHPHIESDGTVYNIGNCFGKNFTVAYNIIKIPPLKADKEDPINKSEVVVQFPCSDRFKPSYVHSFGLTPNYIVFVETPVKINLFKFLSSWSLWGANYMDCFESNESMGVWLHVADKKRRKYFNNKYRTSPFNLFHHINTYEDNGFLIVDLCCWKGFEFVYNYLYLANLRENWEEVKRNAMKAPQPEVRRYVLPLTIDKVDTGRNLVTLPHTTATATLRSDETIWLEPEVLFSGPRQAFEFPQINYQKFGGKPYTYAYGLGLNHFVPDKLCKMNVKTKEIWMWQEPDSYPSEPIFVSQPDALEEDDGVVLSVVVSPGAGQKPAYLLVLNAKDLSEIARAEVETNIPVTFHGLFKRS
Assay: In vivo murine isomerase assay (recovery of 11-cis-retinal after photobleaching)
Design: species or system mice
Conditions: mouse, 1 mg/kg, read-out: % Inibition
Protocol: The capability of alkynyl phenyl-linked amine derivatives to inhibit isomerase is determined by an in vivo murine isomerase assay. Brief exposure of the eye to intense light (“photobleaching” of the visual pigment or simply “bleaching”) is known to photo-isomerize almost all 11-cis-retinal in the retina. The recovery of 11-cis-retinal after bleaching can be used to estimate the activity of isomerase in vivo. Delayed recovery, as represented by lower 11-cis-retinal oxime levels, indicates inhibition of isomerization reaction. Procedures were performed essentially as described by Golczak et al., Proc. Natl. Acad. Sci. […] See also Deigner et al., Science, 244: 968-71 (1989); […] Parish, et al., Proc. Natl. Acad. Sci. USA, 14609-13 (1998); […] Six-week old dark-adapted CD-1 (albino) male mice were orally gavaged with compound (0.03-3 mg/kg) dissolved in 100 μl corn oil containing 10% ethanol (five animals per group). […] After 2-24 hours in the dark, the mice were exposed to photobleaching of 5,000 lux of white light for 10 minutes. The mice were allowed to recover 2 hours in the dark. The animals were then sacrificed by carbon dioxide inhalation. Retinoids were extracted from the eye and the regeneration of 11-cis-retinal was assessed at various time intervals. All steps were performed in darkness with minimal redlight illumination (low light darkroom lights and […] flashlights for spot illumination as needed) (see, e.g., Maeda et al., J. Neurochem 85:944-956, 2003; Van Hooser et al., J Biol Chem 277:19173-82, 2002). After the mice were sacrificed, the eyes were immediately removed and placed in liquid nitrogen for storage. The eyes were placed in 500 μL of bis-tris propane buffer (10 mM, pH 7.3) and 20 μL of 0.8M hydroxile amine (pH-7.3). The eyes were cut up into small pieces with small iris scissors and then thoroughly homogenized at 30000 rpm with a mechanical homogenizer (Polytron PT 1300 D) in the tube until no visible tissue remained. 500 μL of methanol and 500 μL of heptane were added to each tube. The tubes were attached to a vortexer so that the contents were mixed thoroughly for 15 minutes in room temperature. […] The samples were analyzed on an Agilent 1100 HPLC system with normal phase column: SILICA (Beckman Coutlier, dp 5 μm, […]). The running method has a flow rate of 1.5 ml/min; solvent components are 15% solvent 1 (1% isopropanol in ethyl acetate), and 85% solvent 2 (100% hexanes). Loading volume for each sample is 100 μl; detection wavelength is 360 nm. The area under the curve for 11-cis retinal oxime was calculated by Agilent Chemstation software and was recorded manually. Data processing was performed using Prizm software. Positive control mice (no compound administered) were sacrificed fully dark-adapted and the eye retinoids analyzed. Light (bleached) control mice (no compound administered) were sacrificed and retinoids isolated and analyzed immediately after light treatment. […] Animals that received Compound 19 HCl were orally dosed with 0.01 and 1 mg/kg of compound in sterile water as solution, and photobleached 4 hours after dosing. Recovery and retinoid analysis were performed as described above. Dark control mice were vehicle-only treated, sacrificed fully dark adapted without light treatment, and analyzed. […] A time course study was performed to determine the isomerase inhibitory activity of Compounds 2, 18 and 19. Male Balb/c mice (4/group) received 3 mg Compound 2-HCl, Compound 18-HCl or Compound 19-HCl (in water) per kg bodyweight orally, by gavage. The animals were then “photo-bleached” (5000 Lux white light for 10 minutes) at 2, 4, 8, 16 and 24 hours after dosing, and returned to darkness to allow recovery of the 11-cis-retinal content of the eyes. Mice were sacrificed 2 hours after bleaching, eyes were enucleated, and retinoid content was analyzed by HPLC. A single dose study of the compound of Example 36 (Compound 36) was performed, at 1 mg/kg and 5 mg/kg oral dosing, 2, 4, 6, and 24 hours post bleaching. […]

Compound | inhibition in vivo at 1 mg/kg (4 h) [%] | inhibition in vivo at 1 mg/kg (24 h) [%]
CC(=O)NCCCc1cccc(C#CC2(O)CCCCC2)c1 [Example 60, N-(3-(3-((1-Hydroxycyclohexyl)Ethynyl)Phenyl)Propyl)Acetamide] | 10 | 9
NCCCc1cccc(C#Cc2ccccn2)c1 [Example 61, 3-(3-(Pyridin-2-ylethynyl)phenyl)propan-1-amine] | 0 | 0
NCCOc1cccc(C#Cc2cccnc2)c1 [Example 62, 2-(3-(Pyridin-3-ylethynyl)phenoxy)ethanamine] | 0 | 0
NCCCc1cccc(C#Cc2ccncc2)c1 [Example 63, 3-(3-(Pyridin-4-ylethynyl)phenyl)propan-1-amine] | 11 | 0
NCCOc1cccc(C#CC2(O)CCCCCC2)c1 [Example 78, 1-((3-(2-aminoethoxy)phenyl)ethynyl)-cycloheptanol] | 0 | 0
NCCOc1cccc(C#CC2CCCC2)c1 [Example 79, 2-(3-(Cyclopentylethynyl)phenoxy)-ethanamine] | 7 | 1
NCCOc1cccc(C#Cc2ccccc2)c1 [Example 81, 2-(3-(Phenylethynyl)phenoxy)-ethanamine] | 8 | 3
NCCC(O)c1cccc(C#CC2(O)CCCCC2)c1 (stereo not drawn) [Example 99, 1-((3-(3-Amino-1-hydroxypropyl)phenyl)ethynyl)cyclohexanol] | 31 | 0

Next, values leading:

inhibition in vivo at 1 mg/kg (4 h) [%] | inhibition in vivo at 1 mg/kg (24 h) [%] | Compound
67 | 58 | COc1ccccc1C#Cc1cccc(C(O)CCN)c1 (stereo not drawn) [Example 54, 3-Amino-1-(3-((2-Methoxyphenyl)Ethynyl)Phenyl)Propan-1-ol]
16 | 7 | NCCOc1cccc(C#CC2(O)CCSCC2)c1 [Example 55, 4-((3-(2-Aminoethoxy)Phenyl)Ethynyl)Tetrahydro-2H-Thiopyran-4-ol]
8 | 21 | NCCOc1cccc(C#CC2(O)CCCCC2)c1 [Example 57, 1-((3-(2-Aminoethoxy)phenyl)ethynyl)cyclohexanol]
31 | 0 | NCCC(O)c1cccc(C#CC2(O)CCCCCC2)c1 (stereo not drawn) [Example 59, 1-((3-(3-Amino-1-hydroxypropyl)phenyl)ethynyl)cycloheptanol]
81 | 10 | NCCC(O)c1cccc(C#CCCc2ccccc2)c1 (stereo not drawn) [Example 69, 3-Amino-1-(3-(4-phenylbut-1-ynyl)phenyl)propan-1-ol]
8 | 0 | NCCOc1cccc(C#CCCCCO)c1 [Example 74, 6-(3-(2-Aminoethoxy)phenyl)hex-5-yn-1-ol]
22 | 0 | NCCOc1cccc(C#CC2CCCCC2)c1 [Example 80, 2-(3-(Cyclohexylethynyl)phenoxy)ethanamine]
